# Assay results: patent US10508120B2, “TYK2 inhibitors and uses thereof” (Nimbus Lakshmi, Inc., priority 2017, dated 2019)
# Assays:
# Tyk2 kinase domain (DH1) = Tyk2 kinase domain (DH1) (Homo sapiens (Human), UniProt P29597); assay: Tyk2 Radioactive Kinase Assay; type: biochemical; details: compound at 10 μM; ATP 10 μM; read-out: Tyk2 JH1% Inhibition @ 10 μM
# Outline: (§1)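 Compounds were tested at a single concentration of 10 μM in a radiometric kinase format against each isolated kinase domain. Activity is reported as percent inhibition at that concentration.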
# [1] = target: Tyk2/JAK2 (heterodimeric complex) (Homo sapiens (Human), UniProt P29597); assay: IL-12 Induced pSTAT4 in Human PBMC; type: cell-based; details: 1.7 ng/mL IL-12
# Chain of Tyk2/JAK2 (heterodimeric complex) (P29597 whole entry, other chains not shown): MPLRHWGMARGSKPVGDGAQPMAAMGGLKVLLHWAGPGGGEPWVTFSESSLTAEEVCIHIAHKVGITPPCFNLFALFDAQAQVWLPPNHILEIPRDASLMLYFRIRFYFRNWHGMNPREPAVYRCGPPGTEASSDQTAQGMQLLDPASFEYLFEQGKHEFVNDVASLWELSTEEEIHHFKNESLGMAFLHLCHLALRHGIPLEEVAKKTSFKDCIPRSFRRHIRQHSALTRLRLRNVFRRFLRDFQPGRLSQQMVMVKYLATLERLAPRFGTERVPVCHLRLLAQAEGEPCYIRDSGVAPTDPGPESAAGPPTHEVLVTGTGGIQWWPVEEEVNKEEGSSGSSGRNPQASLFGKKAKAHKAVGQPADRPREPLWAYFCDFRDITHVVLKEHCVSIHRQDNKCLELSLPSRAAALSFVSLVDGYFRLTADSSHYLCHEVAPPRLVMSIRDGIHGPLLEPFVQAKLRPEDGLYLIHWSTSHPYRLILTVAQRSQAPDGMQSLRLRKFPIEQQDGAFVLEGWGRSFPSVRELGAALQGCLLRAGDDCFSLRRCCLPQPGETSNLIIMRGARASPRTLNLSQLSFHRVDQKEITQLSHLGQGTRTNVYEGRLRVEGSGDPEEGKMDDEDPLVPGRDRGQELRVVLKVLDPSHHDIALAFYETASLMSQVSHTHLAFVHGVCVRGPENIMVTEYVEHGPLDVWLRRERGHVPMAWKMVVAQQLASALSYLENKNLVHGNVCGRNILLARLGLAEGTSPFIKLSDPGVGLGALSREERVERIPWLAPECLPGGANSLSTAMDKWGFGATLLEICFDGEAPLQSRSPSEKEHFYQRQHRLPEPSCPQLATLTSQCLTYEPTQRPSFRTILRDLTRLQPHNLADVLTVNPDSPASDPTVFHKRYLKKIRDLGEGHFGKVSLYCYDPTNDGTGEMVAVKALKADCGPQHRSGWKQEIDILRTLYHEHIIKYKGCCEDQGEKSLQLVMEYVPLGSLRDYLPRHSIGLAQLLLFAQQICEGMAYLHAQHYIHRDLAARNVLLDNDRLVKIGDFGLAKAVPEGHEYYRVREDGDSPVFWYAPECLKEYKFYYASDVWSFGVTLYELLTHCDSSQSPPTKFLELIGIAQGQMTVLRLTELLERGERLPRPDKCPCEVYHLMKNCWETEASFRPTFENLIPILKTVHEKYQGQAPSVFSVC
# Source text: The IL-12 Induced pSTAT4 assay evaluates the inhibition of IL-12 induced STAT4 phophorylation mediated by Tyk2/JAK2 (heterodimeric complex).
# [2] = target: human TYK2 (JH2domain-pseudokinase) (Homo sapiens (Human), UniProt P29597); assay: TYK2 JH2 Domain Binding Assay (KINOMEscan)
# Chain of human TYK2 (JH2domain-pseudokinase) (P29597 556-888): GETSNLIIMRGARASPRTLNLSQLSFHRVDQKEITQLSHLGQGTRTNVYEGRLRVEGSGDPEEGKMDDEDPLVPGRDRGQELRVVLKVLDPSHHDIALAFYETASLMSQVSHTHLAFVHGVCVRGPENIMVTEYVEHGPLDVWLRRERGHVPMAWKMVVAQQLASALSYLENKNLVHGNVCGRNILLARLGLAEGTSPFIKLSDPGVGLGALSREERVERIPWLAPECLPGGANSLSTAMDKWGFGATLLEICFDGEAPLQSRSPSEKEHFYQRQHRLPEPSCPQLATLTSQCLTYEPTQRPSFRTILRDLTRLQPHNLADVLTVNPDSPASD
# Outline: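 Competition binding of an NFkB-DBD fusion of human TYK2 JH2 (G556–D888), expressed in HEK293 and used as crude extract at <0.1 nM, against immobilized ligand beads; 1 h at room temperature in PBS/Tween/DTT/BSA buffer, 0.9% DMSO.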
# [3] = target: JAK2/JAK2 homdimeric complex (Homo sapiens (Human), UniProt O60674); assay: GM-CSF Induced pSTAT5 in Human PBMC; type: cell-based; details: GM-CSF 5 ng/mL for 20 minutes, pSTAT5 by MSD, read-out: PBMC_GMCSF_pSTAT5 IC50
# Chain of JAK2/JAK2 homdimeric complex (O60674 whole entry, the tested form may be a part): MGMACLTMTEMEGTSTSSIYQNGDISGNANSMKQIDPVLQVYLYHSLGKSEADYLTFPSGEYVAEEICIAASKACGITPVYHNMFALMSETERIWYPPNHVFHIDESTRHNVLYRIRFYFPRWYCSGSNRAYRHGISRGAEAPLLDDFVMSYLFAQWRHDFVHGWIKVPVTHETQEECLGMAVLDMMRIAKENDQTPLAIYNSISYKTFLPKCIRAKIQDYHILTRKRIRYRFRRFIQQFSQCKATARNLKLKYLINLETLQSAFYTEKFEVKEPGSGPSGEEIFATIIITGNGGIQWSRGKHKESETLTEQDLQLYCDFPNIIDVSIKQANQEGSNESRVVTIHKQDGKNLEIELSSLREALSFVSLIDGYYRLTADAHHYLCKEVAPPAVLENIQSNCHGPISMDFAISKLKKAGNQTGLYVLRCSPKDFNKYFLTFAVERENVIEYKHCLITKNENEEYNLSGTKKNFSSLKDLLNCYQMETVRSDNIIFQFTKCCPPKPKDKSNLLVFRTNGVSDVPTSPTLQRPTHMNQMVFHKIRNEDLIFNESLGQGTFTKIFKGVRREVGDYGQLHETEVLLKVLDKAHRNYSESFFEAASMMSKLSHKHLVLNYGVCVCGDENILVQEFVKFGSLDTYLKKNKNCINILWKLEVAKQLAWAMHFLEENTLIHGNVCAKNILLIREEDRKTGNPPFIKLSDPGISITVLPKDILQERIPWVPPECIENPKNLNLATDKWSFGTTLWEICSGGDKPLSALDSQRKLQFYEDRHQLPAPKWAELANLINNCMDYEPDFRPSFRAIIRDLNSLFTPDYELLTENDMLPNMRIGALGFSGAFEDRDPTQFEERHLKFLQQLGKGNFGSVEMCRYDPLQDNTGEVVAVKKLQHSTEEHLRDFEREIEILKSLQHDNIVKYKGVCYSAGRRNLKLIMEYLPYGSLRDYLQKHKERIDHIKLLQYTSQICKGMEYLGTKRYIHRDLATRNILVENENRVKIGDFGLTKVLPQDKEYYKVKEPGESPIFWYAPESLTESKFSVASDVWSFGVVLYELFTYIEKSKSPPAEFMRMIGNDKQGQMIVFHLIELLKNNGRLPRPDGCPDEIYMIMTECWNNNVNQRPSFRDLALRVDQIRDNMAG
# Chain of JAK2/JAK2 homdimeric complex (P32927 17-897 partner): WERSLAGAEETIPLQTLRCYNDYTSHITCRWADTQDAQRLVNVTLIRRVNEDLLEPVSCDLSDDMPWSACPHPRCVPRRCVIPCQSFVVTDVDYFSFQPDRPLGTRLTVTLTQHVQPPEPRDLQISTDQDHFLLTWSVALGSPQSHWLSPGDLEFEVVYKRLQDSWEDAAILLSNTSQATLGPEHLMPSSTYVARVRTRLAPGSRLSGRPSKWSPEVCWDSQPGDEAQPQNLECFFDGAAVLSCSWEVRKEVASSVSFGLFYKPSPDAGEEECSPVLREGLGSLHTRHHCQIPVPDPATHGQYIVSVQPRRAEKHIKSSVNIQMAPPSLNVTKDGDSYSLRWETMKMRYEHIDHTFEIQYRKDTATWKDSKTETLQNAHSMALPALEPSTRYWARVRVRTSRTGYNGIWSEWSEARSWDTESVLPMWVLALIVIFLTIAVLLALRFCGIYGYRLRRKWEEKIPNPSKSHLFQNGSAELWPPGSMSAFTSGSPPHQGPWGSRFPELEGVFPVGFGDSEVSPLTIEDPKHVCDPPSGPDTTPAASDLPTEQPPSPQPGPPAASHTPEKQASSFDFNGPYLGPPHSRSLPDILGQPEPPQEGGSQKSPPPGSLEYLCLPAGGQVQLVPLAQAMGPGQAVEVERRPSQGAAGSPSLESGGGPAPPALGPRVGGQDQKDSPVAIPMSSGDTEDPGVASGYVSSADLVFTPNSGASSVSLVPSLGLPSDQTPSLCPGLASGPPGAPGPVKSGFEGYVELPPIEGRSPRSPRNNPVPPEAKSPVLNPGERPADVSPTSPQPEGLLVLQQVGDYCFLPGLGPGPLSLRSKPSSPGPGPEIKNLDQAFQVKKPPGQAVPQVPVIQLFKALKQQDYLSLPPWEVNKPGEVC
# JAK2 kinase domain (JH1) = JAK2 kinase domain (JH1) (Homo sapiens (Human), UniProt O60674); assay: JAK2 Radioactive Kinase Assay; type: biochemical; details: compound at 10 μM; ATP 10 μM; read-out: JAK2 JH1% Inhibition @ 10 μM
# Chain of JAK2 kinase domain (JH1) (O60674 849-1124): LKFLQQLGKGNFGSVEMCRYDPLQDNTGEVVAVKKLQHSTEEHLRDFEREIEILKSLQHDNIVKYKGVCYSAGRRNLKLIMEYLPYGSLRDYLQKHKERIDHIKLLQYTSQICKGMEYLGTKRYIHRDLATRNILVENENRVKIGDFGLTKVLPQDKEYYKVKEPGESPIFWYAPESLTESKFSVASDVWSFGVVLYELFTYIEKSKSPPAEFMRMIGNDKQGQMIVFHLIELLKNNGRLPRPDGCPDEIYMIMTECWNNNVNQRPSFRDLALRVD
# Outline: as §1
# Chain of Tyk2 kinase domain (DH1) (P29597 897-1176): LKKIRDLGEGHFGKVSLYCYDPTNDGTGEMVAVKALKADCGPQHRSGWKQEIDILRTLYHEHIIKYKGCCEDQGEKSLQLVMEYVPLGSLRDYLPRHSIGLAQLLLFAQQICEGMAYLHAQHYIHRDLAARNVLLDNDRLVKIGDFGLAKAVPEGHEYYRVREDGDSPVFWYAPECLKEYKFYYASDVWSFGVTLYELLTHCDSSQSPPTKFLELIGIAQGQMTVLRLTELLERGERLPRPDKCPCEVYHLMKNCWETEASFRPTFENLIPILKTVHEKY
inhibition at 10 µM (Tyk2 kinase domain (DH1)) [%],IC50 [1] [nM],Kd [2] [nM],IC50 [3] [nM],inhibition at 10 µM (JAK2 kinase domain (JH1)) [%],Structure (SMILES)
< 50,< 100,< 0.2,> 12500,< 50,CNc1cc(Nc2cccn(C3CCN(CC(F)F)CC3)c2=O)nc2c(C(=O)NC3CCC3)cnn12 [I-192]
< 50,< 100,0.2 to 1,> 12500,< 50,CNc1cc(Nc2cc(F)cn(-c3ccccn3)c2=O)nc2c(C(=O)NC3CCC3)cnn12 [I-193]
< 50,< 100,< 0.2,> 50000,< 50,"CNc1cc(Nc2cccnc2OC2CC2)nc2c(C(=O)NC3CC3)cnn12 [I-215, 5-((2-cyclopropoxypyridin-3-yl)amino)-N-cyclopropyl-7-(methylamino) pyrazolo[1,5-a]pyrimidine-3-carboxamide]"
< 50,< 100,< 0.2,> 12500,< 50,CNc1cc(Nc2cccnc2OC2CC2)nc2c(C(=O)NC3CCC3)cnn12 [I-216]
< 50,< 100,< 0.2,> 50000,< 50,CNc1cc(Nc2cccnc2OC2CC2)nc2c(C(=O)N[C@H]3C[C@H]3F)cnn12 [I-217]
< 50,< 100,< 0.2,> 12500,< 50,CNc1cc(Nc2cccnc2OCCOC)nc2c(C(=O)NC3CCC3)cnn12 [I-219]
< 50,< 100,< 0.2,> 12500,< 50,CNc1cc(Nc2cccnc2OCCOC)nc2c(C(=O)N[C@H]3C[C@H]3F)cnn12 [I-220]
< 50,< 100,< 0.2,> 50000,< 50,CNc1cc(Nc2cccn(-c3ccc(F)cn3)c2=O)nc2c(C(=O)NC3CCC3)cnn12 [I-238]
< 50,< 100,< 0.2,> 2500,< 50,CNc1cc(Nc2cccn(-c3ccc(C4CC4)nn3)c2=O)nc2c(C(=O)NC3CCC3)cnn12 [I-240]
< 50,< 100,< 0.2,> 50000,< 50,[2H]C([2H])([2H])Oc1ncc(C)cc1Nc1cc(NC)n2ncc(C(=O)NC3CC3)c2n1 [I-258]
< 50,< 100,0.2 to 1,> 2500,< 50,"CNc1cc(Nc2cccn(-c3ncc(C)s3)c2=O)nc2c(C(=O)NC3CC3)cnn12 [I-261, N-cyclopropyl-7-(methylamino)-5-((1-(5-methylthiazol-2-yl)-2-oxo-1,2-dihydropyridin-3-yl)amino)pyrazolo[1,5-a]pyrimidine-3-carboxamide]"
< 50,< 100,< 0.2,> 2500,< 50,CNc1cc(Nc2cccn(-c3ncc(C)s3)c2=O)nc2c(C(=O)NC3CCC3)cnn12 [I-263]
< 50,< 100,< 0.2,> 12500,< 50,CNc1cc(Nc2cccn(-c3ccc(OC)cn3)c2=O)nc2c(C(=O)NC3CCC3)cnn12 [I-266]
< 50,< 100,< 0.2,> 50000,< 50,CNc1cc(Nc2cccn(CCOC)c2=O)nc2c(C(=O)NC3CCC3)cnn12 [I-269]
< 50,< 100,< 0.2,> 12500,< 50,CNc1cc(Nc2cc(F)cnc2OC2CC2)nc2c(C(=O)NC3CC3)cnn12 [I-274]

# Further lines, the molecule ahead of its results:
Structure (SMILES),inhibition at 10 µM (Tyk2 kinase domain (DH1)) [%],IC50 [1] [nM],Kd [2] [nM],IC50 [3] [nM],inhibition at 10 µM (JAK2 kinase domain (JH1)) [%]
CNc1cc(Nc2cccn([C@H]3CC[C@@H](N4CCOCC4)CC3)c2=O)nc2c(C(=O)NC3CCC3)cnn12 [I-182],< 50,< 100,< 0.2,> 2500,< 50
CNc1cc(-c2c[nH]c3c(C4CCOCC4)cc(Cl)cc23)nc2c(C(N)=O)cnn12 [I-190],< 50,< 100,< 0.2,> 12500,< 50
CNc1cc(Nc2cc(F)cn(-c3ccccn3)c2=O)nc2c(C(=O)N[C@H]3C[C@H]3F)cnn12 [I-194],< 50,< 100,< 0.2,> 12500,< 50
CNc1cc(Nc2cc(F)cn(-c3ccc(C)nn3)c2=O)nc2c(C(=O)N[C@H]3C[C@H]3F)cnn12 [I-198],< 50,< 100,< 0.2,> 2500,< 50
CNc1cc(Nc2cc(F)cnc2OC(C)C)nc2c(C(=O)N[C@H]3C[C@H]3F)cnn12 [I-211],< 50,100 to 500,0.2 to 1,> 50000,< 50
"CNc1cc(-c2cn(C(C)C)c3ncccc23)nc2c(C(N)=O)cnn12 [I-222, 5-(1-isopropyl-1H-pyrrolo[2,3-b]pyridin-3-yl)-7-(methylamino)pyrazolo[1,5-a]pyrimidine-3-carboxamide]",< 50,< 100,0.2 to 1,> 2500,< 50
CNc1cc(-c2cn(C(C)C)c3ncccc23)nc2c(C(=O)NC3CC3)cnn12 [I-223],< 50,< 100,< 0.2,> 12500,< 50
CNc1cc(-c2cn(C(C)C)c3ncccc23)nc2c(C(=O)NC3CCC3)cnn12 [I-224],< 50,< 100,< 0.2,> 50000,< 50
CNc1cc(Nc2cc(C)cn(-c3cnn(C)c3)c2=O)nc2c(C(=O)NC3CC3)cnn12 [I-233],< 50,< 100,< 0.2,> 50000,< 50
CNc1cc(Nc2cc(C)cn(-c3cnn(C)c3)c2=O)nc2c(C(=O)NC3CCC3)cnn12 [I-234],< 50,< 100,< 0.2,> 2500,< 50
CNc1cc(Nc2cc(C)cn(-c3cnn(C)c3)c2=O)nc2c(C(=O)N[C@H]3C[C@H]3F)cnn12 [I-235],< 50,< 100,< 0.2,> 2500,< 50
CNc1cc(Nc2cccc(N3CCOC3=O)n2)nc2c(C(=O)N[C@H]3C[C@H]3F)cnn12 [I-236],< 50,< 100,< 0.2,> 2500,< 50
CNc1cc(Nc2cccn(-c3nccs3)c2=O)nc2c(C(=O)N[C@H]3C[C@H]3F)cnn12 [I-243],< 50,< 100,0.2 to 1,> 2500,< 50
CNc1cc(Nc2cccc(N3CCCC3=O)n2)nc2c(C(=O)N[C@H]3C[C@H]3F)cnn12 [I-244],< 50,< 100,< 0.2,> 12500,< 50
CNc1cc(Nc2cccn(-c3ccc(F)cc3)c2=O)nc2c(C(=O)NC3CCC3)cnn12 [I-246],< 50,< 100,< 0.2,> 2500,< 50
CNc1cc(Nc2cc(C)cn(-c3ccn(C)n3)c2=O)nc2c(C(=O)N[C@H]3C[C@H]3F)cnn12 [I-250],< 50,< 100,< 0.2,> 12500,< 50
CNc1cc(-c2cn(C(C)C)c3ncc(C)cc23)nc2c(C(N)=O)cnn12 [I-255],< 50,< 100,< 0.2,> 50000,< 50
[2H]C([2H])([2H])Oc1ncc(C)cc1Nc1cc(NC)n2ncc(C(=O)N[C@H]3C[C@H]3F)c2n1 [I-259],< 50,< 100,< 0.2,> 12500,< 50
CNc1cc(Nc2cccn(-c3ncc(C)s3)c2=O)nc2c(C(=O)N[C@H]3C[C@H]3F)cnn12 [I-262],< 50,< 100,< 0.2,> 2500,< 50
CNc1cc(Nc2cccn(-c3ccc(OC)cn3)c2=O)nc2c(C(=O)N[C@H]3C[C@H]3F)cnn12 [I-265],< 50,< 100,< 0.2,> 12500,< 50
"CNc1cc(-c2cn(C(C)C)c3ncc(Cl)cc23)nc2c(C(N)=O)cnn12 [I-272, 5-(5-chloro-1-isopropyl-1H-pyrrolo[2,3-b]pyridin-3-yl)-7-(methylamino) pyrazolo[1,5-a]pyrimidine-3-carboxamide]",< 50,< 100,< 0.2,> 12500,< 50
